From PubChem BioAssay (NCI) come the findings set out here.

Experiment in all cases: NCI tumour cell line growth inhibition, 48 h
Experiment [1] concerns RXF-631 renal.
For experiment [2], the system named is SNB-78 CNS.
Experiment [3] concerns DLD-1 colon.
The subject of experiment [4] is LXFL 529 NSCLC.
Experiment [5] relates to XF 498 CNS.
Experiment [6] deals with M19-MEL melanoma.
Experiment [7] has as its system MDA-N.
Experiment [8] relates to PC-3 prostate.
Experiment [9] deals with BT-549 breast.

Where “and” joins values, the source holds several entries; their conditions need not be identical. Equal values may be shown once.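 Compound exposure: 48 hours, 5 concentrations, 96-well plates. At the GI50, growth is halved. The concentration for full growth arrest is given as TGI.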

For the compound `Cc1ccc(OCC(=O)N2N=C(c3ccccc3)CC2(O)c2ccccc2)cc1` (stereo not given), the TGI in experiment [1] was greater than 100 µM; in [2], 51.5 µM; in [3], greater than 100 µM; in experiment [4], greater than 100 µM; in [5], greater than 100 µM; in experiment [6], greater than 100 µM.

Consider `CCOc1ccccc1NC(=O)C(=O)CC(=O)c1c(C)n([O-])c2ccccc2[n+]1=O`, for which the TGI in experiment [2], in [4] and in experiment [6] was greater than 100 µM in each case.

For `CNC(P(=O)([O-])[O-])P(=O)([O-])[O-].N.N.[Pt+2]`, the GI50 in experiment [2], in [3] and in experiment [4] was greater than 100 µM each time. The TGI in experiment [2], in experiment [3] and in experiment [4] was greater than 100 µM each time.

For the compound `O=C(c1ccccc1)C(c1ccccc1)C1(O)C(=O)Nc2c(Cl)cc(Cl)cc21` (stereo not given), the TGI in experiment [1] was 38 µM; in [2], 67.4 µM; in experiment [3] it was 37.5 µM; in [4], 25.7 µM; in experiment [5], greater than 100 µM.

For `CC1=C(C)C(=O)c2c(cc3ccc4ccccc4n23)C1=O`, the TGI in experiment [1], in experiment [2], in [3], in experiment [4] and in experiment [6] was greater than 100 µM in each case.

As for `O=c1c2ccccc2[nH]c(=S)n1-c1ccc(Br)cc1`, the TGI in experiment [2], in experiment [3], in experiment [4], in experiment [5] and in experiment [6] was greater than 100 µM in each case.

As to `COc1cc(CCc2ccc(OCCN(C)C)cc2)cc(OC)c1OC`, the TGI is greater than 100 µM in [1]; greater than 100 µM in [2]; greater than 100 µM in [3]; greater than 100 µM in experiment [4]; 93.7 µM in experiment [5]; greater than 100 µM in experiment [6].

Take `O=C(c1ccccc1)C(C(=O)c1ccccc1)C1(O)C(=O)c2ccccc2C1=O`: the TGI in experiment [2] was greater than 100 µM; in experiment [4] it was greater than 100 µM; in experiment [5], greater than 100 µM; in experiment [6], 42.6 µM.

As to `CCOC(=O)[C@@]1(C)C=C2O[C@@H]3OC4(CCCCC4)O[C@@H]3C2=C2C(O)=CC=C(O)[C@]21C(=O)OC`, the TGI in experiment [1], in experiment [2], in experiment [3], in experiment [4], in experiment [5] and in [6] was greater than 68 µM each time.

In the case of `CC[C@H](C)N(CCN)C(=O)c1cc2ccccc2c(-c2ccccc2Cl)n1`, the values for the TGI in experiment [2] and in [4] were 31.6 µM and 10.4 µM, respectively.

For the compound `Nc1ccn(CCOC(=O)c2ccccc2)c(=O)n1`, the TGI in experiment [1], in experiment [2], in experiment [3] and in [4] was greater than 100 µM in each case.

Consider `Cc1cc2c(c(C#N)c1C)NC(=O)CCC2=O`, for which the TGI in experiment [1], in experiment [2], in experiment [3], in experiment [4], in experiment [5] and in experiment [6] was greater than 100 µM each time.

As to `CN1CC[C@@H](c2c(O)cc(O)c3c(=O)cc(-c4ccccc4Cl)oc23)[C@@H](O)C1`, the GI50 in [7] was 0.124 µM and 0.0494 µM; in [8] it was 0.0655 µM and 0.0735 µM; in experiment [9], 0.171 µM and 0.178 µM. Further, the TGI was 0.349 µM and 0.148 µM in experiment [7]; greater than 17.6 µM in experiment [2]; greater than 100 µM in experiment [3]; greater than 68.6 µM in experiment [4]; 0.533 µM in experiment [5].

Consider `COc1cc([C@H]2c3cc4c(cc3O[C@@]3(O)COC(=O)[C@@H]23)OCO4)cc(OC)c1OC`, for which the TGI in [7], in experiment [1], in experiment [8], in experiment [2], in [3] and in [5] was greater than 100 µM throughout. The TGI in experiment [6] was greater than 100 µM.

`Cn1c(=O)nc2n(-c3ccc(Cl)cc3)c3ccc(Cl)cc3nc-2c1=O` showed a TGI in experiment [2] of 29.6 µM.

Turning to `Nn1c(-c2ccccc2)nc2ccc(Br)cc2c1=O`, the TGI in [1], in experiment [2], in experiment [3], in experiment [4], in experiment [5] and in experiment [6] was greater than 100 µM each time.

For the compound `Cc1nc2c(nc1C)C(=O)c1cc(O)ccc1C2=O`, the TGI in [2] is greater than 100 µM; in [3], greater than 86.8 µM; in experiment [4], greater than 100 µM; in experiment [6] it was 22.3 µM.

Consider `O=C1C(=O)N(C(=O)c2ccc(Cl)c(Cl)c2)c2ccccc21`, for which the TGI in experiment [1], in [2], in [3], in experiment [4] and in experiment [6] was greater than 100 µM each time.

`Cc1cc(C)nc(NS(=O)(=O)c2ccc(Nc3c4ccccc4nc4c(C(=O)Nc5ccc(S(=O)(=O)N=C(N)N)cc5)ccc(Cl)c34)cc2)n1`: the TGI is greater than 100 µM in [2]; greater than 100 µM in experiment [3]; 72.4 µM in [4]; 56.7 µM in [5]; 55.4 µM in [6].

As for `C[C@@H]1C[C@@H](O)[C@]2(O)O[C@@H]3C[C@@]4(C=O)[C@@H](CC[C@@H]5[C@@H]4CC[C@]4(C)[C@@H](C6=CC(=O)OC6)CC[C@]54O)C[C@H]3O[C@@H]2O1`, the TGI in experiment [7] is 0.189 µM; in [8], 0.518 µM; in [2], 0.211 µM; in [9] it was 0.179 µM; in experiment [3], 0.0375 µM and 0.033 µM; in experiment [4], 0.0164 µM and 0.0576 µM. Also, the TGI in [5] was 0.0571 µM and 0.0493 µM; in [6], 0.104 µM and 0.0732 µM. Besides, the GI50 in experiment [3] is 0.0053 µM; in experiment [5] it was 0.0206 µM; in [6], 0.0125 µM.
